≈ marks a conversion by molar mass, not a printed value. Calls of active or inactive are those of the source. The rule behind the calls is not given here.
Tests used:
Acinetobacter baumannii [1] = assay: Antibacterial activity against trimethoprim-sulfamethoxazole, cefepime-resistant Acinetobacter baumannii by microdilution method; assay type: functional
Bacillus subtilis [2] = assay: Antibacterial activity against ceftriaxon-resistant Bacillus subtilis by microdilution method; assay type: functional
Candida parapsilosis = assay: Antifungal activity against Candida parapsilosis ATCC 22019 by microdilution method; assay type: functional
Klebsiella pneumoniae [3] = assay: Antibacterial activity against ESbetaL positive trimethoprim-sulfamethoxazole, amoxicillin clavulonat, cefriaxon, cephepim, aztreonam-resistant Klebsiella pneumoniae by microdilution method; assay type: functional
Pseudomonas aeruginosa [4] = assay: Antibacterial activity against Pseudomonas aeruginosa ATCC 10145 by microdilution method; assay type: functional
Escherichia coli [5] = assay: Antibacterial activity against ESbetaL positive trimethoprim-sulfamethoxazole, cefepime, tazobactam-resistant Escherichia coli isolate by microdilution method; assay type: functional
Acinetobacter baumannii [6] = assay: Antibacterial activity against Acinetobacter baumannii RSKK 02026 by microdilution method; assay type: functional
Proteus mirabilis [7] = assay: Antibacterial activity against Proteus mirabilis ATCC 7002 by microdilution method; assay type: functional
Pseudomonas aeruginosa [8] = assay: Antibacterial activity against trimethoprim-sulfamethoxazole, tazobactam-resistant Pseudomonas aeruginosa by microdilution method; assay type: functional
Enterococcus faecalis [9] = assay: Antibacterial activity against Enterococcus faecalis ATCC 29212 by microdilution method; assay type: functional
Bacillus subtilis [10] = assay: Antibacterial activity against Bacillus subtilis ATCC 6633 by microdilution method; assay type: functional
Klebsiella pneumoniae [11] = assay: Antibacterial activity against Klebsiella pneumoniae RSKK 574 by microdilution method; assay type: functional
Escherichia coli [12] = assay: Antibacterial activity against Escherichia coli ATCC 35218 by microdilution method; assay type: functional
Staphylococcus aureus [13] = assay: Antibacterial activity against Staphylococcus aureus ATCC 25923 by microdilution method; assay type: functional
Enterococcus faecalis [14] = assay: Antibacterial activity against cephalosporins and beta-lactam-resistant Enterococcus faecalis by microdilution method; assay type: functional
Candida albicans = assay: Antifungal activity against Candida albicans ATCC 10231 by microdilution method; assay type: functional
Proteus mirabilis [15] = assay: Antibacterial activity against ESbetaL positive rimethoprim-sulfamethoxazole, cefepime, tazobactam-resistant Proteus mirabilis by microdilution method; assay type: functional
Human respirovirus 3 [16] = assay: Antiviral activity against Human parainfluenza virus 3 infected African green monkey Vero cells assessed as concentration required to cause maximum inhibition of virus-induced cytopathic effect; assay type: functional
Human alphaherpesvirus 1 [17] = assay: Antiviral activity against Human herpesvirus 1 infected bovine MDBK cells assessed as concentration required to cause minimum inhibition of virus-induced cytopathic effect; assay type: functional
Human alphaherpesvirus 1 [18] = assay: Antiviral activity against Human herpesvirus 1 infected bovine MDBK cells assessed as concentration required to cause maximum inhibition of virus-induced cytopathic effect; assay type: functional
[19] = Cytotoxicity against Bos taurus (bovine) MDBK cells assessed as maximum non-toxic concentration; assay type: cell-based; details: cattle, read-out: MNCC
Staphylococcus aureus [20] = assay: Antibacterial activity against oxacillin, gentamicin, aztreonam, trimethoprim-sulfamethoxazole-resistant Staphylococcus aureus by microdilution method; assay type: functional
Human respirovirus 3 [21] = assay: Antiviral activity against Human parainfluenza virus 3 infected African green monkey Vero cells assessed as concentration required to cause minimum inhibition of virus-induced cytopathic effect; assay type: functional
[22] = Cytotoxicity against Chlorocebus aethiops (African green monkey) Vero cells assessed as maximum non-toxic concentration; assay type: cell-based; details: chlorocebus sabaeus, read-out: MNCC

Compound	MIC (Acinetobacter baumannii [1])	MIC (Bacillus subtilis [2])	MIC (Klebsiella pneumoniae [3])	MIC (Pseudomonas aeruginosa [4])	MIC (Escherichia coli [5])	MIC (Acinetobacter baumannii [6])	MIC (Proteus mirabilis [7])	MIC (Pseudomonas aeruginosa [8])	MIC (Enterococcus faecalis [9])	MIC (Bacillus subtilis [10])	MIC (Klebsiella pneumoniae [11])	MIC (Escherichia coli [12])	MIC (Staphylococcus aureus [13])	MIC (Enterococcus faecalis [14])	MIC (Candida albicans)	MIC (Proteus mirabilis [15])	Activity (Human respirovirus 3 [16])	Activity (Human alphaherpesvirus 1 [17])	MIC (Candida parapsilosis; Lodderomyces parapsilosis)	MIC (Staphylococcus aureus [20])	other results
CN[C@H](CC(C)C)C(=O)N[C@H]1C(=O)N[C@@H](CC(N)=O)C(=O)N[C@H]2C(=O)N[C@H]3C(=O)N[C@H](C(=O)N[C@H](C(=O)O)c4cc(O)cc(O)c4-c4cc3ccc4O)[C@H](O)c3ccc(c(Cl)c3)Oc3cc2cc(c3O[C@@H]2O[C@H](CO)[C@@H](O)[C@H](O)[C@H]2O[C@H]2C[C@](C)(N)[C@H](O)[C@H](C)O2)Oc2ccc(cc2Cl)[C@H]1O [VANCOMYCIN]	inactive	inactive	inactive	inactive	inactive	inactive	inactive	inactive	inactive	inactive	inactive	inactive	0.12 mg/L (≈ 0.0828 µM)	inactive	inactive	inactive					MIC (Candida parapsilosis): inactive
O=c1cc(CCl)oc(CN2CCN(c3cccc(C(F)(F)F)c3)CC2)c1O	64 mg/L (≈ 159 µM)	64 mg/L (≈ 159 µM)	64 mg/L (≈ 159 µM)	16 mg/L (≈ 39.7 µM)	64 mg/L	32 mg/L (≈ 79.4 µM)	16 mg/L (≈ 39.7 µM)	64 mg/L	16 mg/L (≈ 39.7 µM)	32 mg/L (≈ 79.4 µM)	16 mg/L (≈ 39.7 µM)	16 mg/L (≈ 39.7 µM)	32 mg/L (≈ 79.4 µM)	32 mg/L (≈ 79.4 µM)	8 mg/L (≈ 19.9 µM)	64 mg/L	0.4 µg/mL	0.05 µg/mL	8 mg/L (≈ 19.9 µM)	64 mg/L (≈ 159 µM)	Activity (Human alphaherpesvirus 1 [18]): 0.8 µg/mL; MNTC [19]: 0.8 µg/mL; Activity (Human respirovirus 3 [21]): 0.025 µg/mL; MNTC [22]: 0.8 µg/mL
O=c1cc(CCl)oc(CN2CCN(c3ccc(C(F)(F)F)cc3)CC2)c1O	64 mg/L (≈ 159 µM)	64 mg/L (≈ 159 µM)	64 mg/L (≈ 159 µM)	16 mg/L (≈ 39.7 µM)	64 mg/L	16 mg/L (≈ 39.7 µM)	16 mg/L (≈ 39.7 µM)	64 mg/L	8 mg/L (≈ 19.9 µM)	8 mg/L (≈ 19.9 µM)	32 mg/L (≈ 79.4 µM)	16 mg/L (≈ 39.7 µM)	16 mg/L (≈ 39.7 µM)	32 mg/L (≈ 79.4 µM)	8 mg/L (≈ 19.9 µM)	64 mg/L	0.4 µg/mL	0.05 µg/mL	8 mg/L (≈ 19.9 µM)	64 mg/L (≈ 159 µM)	Activity (Human alphaherpesvirus 1 [18]): 0.8 µg/mL; MNTC [19]: 0.8 µg/mL; Activity (Human respirovirus 3 [21]): 0.025 µg/mL; MNTC [22]: 0.4 µg/mL
COc1ccccc1N1CCN(Cc2oc(CCl)cc(=O)c2O)CC1	64 mg/L (≈ 175 µM)	32 mg/L (≈ 87.7 µM)	64 mg/L (≈ 175 µM)	32 mg/L (≈ 87.7 µM)	64 mg/L	32 mg/L (≈ 87.7 µM)	32 mg/L (≈ 87.7 µM)	64 mg/L	64 mg/L (≈ 175 µM)	16 mg/L (≈ 43.9 µM)	32 mg/L (≈ 87.7 µM)	32 mg/L (≈ 87.7 µM)	64 mg/L (≈ 175 µM)	128 mg/L (≈ 351 µM)	8 mg/L (≈ 21.9 µM)	64 mg/L	0.2 µg/mL	0.2 µg/mL	8 mg/L (≈ 21.9 µM)	128 mg/L (≈ 351 µM)	Activity (Human alphaherpesvirus 1 [18]): 0.8 µg/mL; MNTC [19]: 0.8 µg/mL; Activity (Human respirovirus 3 [21]): 0.05 µg/mL; MNTC [22]: 1.6 µg/mL
O=c1cc(CCl)oc(CN2CCN(c3cccc(Cl)c3)CC2)c1O	64 mg/L (≈ 173 µM)	32 mg/L (≈ 86.7 µM)	64 mg/L (≈ 173 µM)	32 mg/L (≈ 86.7 µM)	64 mg/L	32 mg/L (≈ 86.7 µM)	32 mg/L (≈ 86.7 µM)	64 mg/L	8 mg/L (≈ 21.7 µM)	16 mg/L (≈ 43.3 µM)	32 mg/L (≈ 86.7 µM)	32 mg/L (≈ 86.7 µM)	8 mg/L (≈ 21.7 µM)	128 mg/L (≈ 347 µM)	16 mg/L (≈ 43.3 µM)	64 mg/L	0.8 µg/mL	0.1 µg/mL	16 mg/L (≈ 43.3 µM)	128 mg/L (≈ 347 µM)	Activity (Human alphaherpesvirus 1 [18]): 0.8 µg/mL; MNTC [19]: 1.6 µg/mL; Activity (Human respirovirus 3 [21]): 0.025 µg/mL; MNTC [22]: 0.8 µg/mL
CCOC(=O)C1=C[C@@H](OC(CC)CC)[C@H](NC(C)=O)[C@@H](N)C1 [OSELTAMIVIR]																	1.6 µg/mL				Activity (Human respirovirus 3 [21]): <0.012 µg/mL
O=c1cc(CCl)oc(CN2CCN(c3ccccc3F)CC2)c1O	64 mg/L (≈ 181 µM)	16 mg/L (≈ 45.4 µM)	64 mg/L (≈ 181 µM)	32 mg/L (≈ 90.7 µM)	64 mg/L	32 mg/L (≈ 90.7 µM)	32 mg/L (≈ 90.7 µM)	64 mg/L	16 mg/L (≈ 45.4 µM)	8 mg/L (≈ 22.7 µM)	16 mg/L (≈ 45.4 µM)	16 mg/L (≈ 45.4 µM)	16 mg/L (≈ 45.4 µM)	32 mg/L (≈ 90.7 µM)	8 mg/L (≈ 22.7 µM)	64 mg/L	0.2 µg/mL	0.05 µg/mL	8 mg/L (≈ 22.7 µM)	64 mg/L (≈ 181 µM)	Activity (Human alphaherpesvirus 1 [18]): 0.8 µg/mL; MNTC [19]: 0.8 µg/mL; Activity (Human respirovirus 3 [21]): 0.025 µg/mL; MNTC [22]: 0.8 µg/mL
CC(=O)N1CCN(c2ccc(OCC3COC(Cn4ccnc4)(c4ccc(Cl)cc4Cl)O3)cc2)CC1 (configuration not stated) [KETOCONAZOLE]		inactive							inactive	inactive			inactive	inactive	1 mg/L (≈ 1.88 µM)				1 mg/L (≈ 1.88 µM)	inactive	
O=c1cc(CCl)oc(CN2CCN(c3ccc(Cl)c(Cl)c3)CC2)c1O	32 mg/L (≈ 79.3 µM)	64 mg/L (≈ 159 µM)	64 mg/L (≈ 159 µM)	16 mg/L (≈ 39.6 µM)	64 mg/L	64 mg/L (≈ 159 µM)	32 mg/L (≈ 79.3 µM)	64 mg/L	8 mg/L (≈ 19.8 µM)	16 mg/L (≈ 39.6 µM)	32 mg/L (≈ 79.3 µM)	64 mg/L (≈ 159 µM)	8 mg/L (≈ 19.8 µM)	64 mg/L (≈ 159 µM)	16 mg/L (≈ 39.6 µM)	64 mg/L	0.4 µg/mL	0.1 µg/mL	16 mg/L (≈ 39.6 µM)	64 mg/L (≈ 159 µM)	Activity (Human alphaherpesvirus 1 [18]): 0.4 µg/mL; MNTC [19]: 1.6 µg/mL; Activity (Human respirovirus 3 [21]): 0.05 µg/mL; MNTC [22]: 0.4 µg/mL
OC(Cn1cncn1)(Cn1cncn1)c1ccc(F)cc1F [FLUCONAZOLE]		inactive							inactive	inactive			inactive	inactive	2 mg/L (≈ 6.53 µM)				4 mg/L (≈ 13.1 µM)	inactive	
Nc1nc2c(ncn2COCCO)c(=O)[nH]1 [ACYCLOVIR]																		<0.012 µg/mL			Activity (Human alphaherpesvirus 1 [18]): 1.6 µg/mL
CC1(C)S[C@@H]2[C@H](NC(=O)[C@H](N)c3ccccc3)C(=O)N2[C@H]1C(=O)O [AMPICILLIN]	> 128 mg/L	0.5 mg/L (≈ 1.43 µM)	> 128 mg/L	inactive	> 128 mg/L	2 mg/L (≈ 5.72 µM)	2 mg/L (≈ 5.72 µM)	inactive	0.5 mg/L (≈ 1.43 µM)	0.12 mg/L (≈ 0.343 µM)	2 mg/L (≈ 5.72 µM)		< 0.12 mg/L	> 128 mg/L	inactive	> 128 mg/L				> 128 mg/L	MIC (Candida parapsilosis): inactive
CC1COc2c(N3CCN(C)CC3)c(F)cc3c(=O)c(C(=O)O)cn1c23 (configuration not stated) [OFLOXACIN]	64 mg/L (≈ 177 µM)	inactive				0.12 mg/L (≈ 0.332 µM)	< 0.12 mg/L		1 mg/L (≈ 2.77 µM)	inactive	< 0.12 mg/L		0.25 mg/L (≈ 0.692 µM)	32 mg/L (≈ 88.6 µM)	inactive	1 mg/L				64 mg/L (≈ 177 µM)	MIC (Candida parapsilosis): inactive
C[C@H]1COc2c(N3CCN(C)CC3)c(F)cc3c(=O)c(C(=O)O)cn1c23.C[C@H]1COc2c(N3CCN(C)CC3)c(F)cc3c(=O)c(C(=O)O)cn1c23.O [LEVOFLOXACIN]	64 mg/L	inactive				0.12 mg/L	< 0.12 mg/L		0.5 mg/L	inactive	< 0.12 mg/L		0.25 mg/L	32 mg/L	inactive	1 mg/L				128 mg/L	MIC (Candida parapsilosis): inactive
GENTAMICIN	inactive	inactive	inactive	inactive	inactive	inactive	inactive	inactive	inactive	inactive	inactive	inactive	inactive	inactive	inactive	inactive				inactive	MIC (Candida parapsilosis): inactive
